“Also recorded” adds a separate entry of the source.
Key:
[1] = In situ calcium ion-selective electrode (ISE) measurement of COM crystallization; details: for percent reduction in COM growth rate: 20 μg/ml additive, supersaturated calcium oxalate S=5.4, stirred, ISE slope in first 40 min vs control
Description: The COM growth rate was measured as the slope (dCa/dt) of decreasing Ca^2+ concentration within the first 40 min of crystallization. […] The percent reduction in COM growth rate was calculated by comparing the ISE slopes of peptides and control using the formula, Percent Reduction=[1−(dCa/dt)peptide/(dCa/dt)control]×100%. Data are averages of 2 or 3 measurements (error bars equal two standard deviations);
COM crystals for bulk crystallization studies were synthesized using a reported procedure that produces micron-sized crystals with large basal (100) surfaces. COM crystals prepared with molar composition 0.7 mM CaCl2: 0.7 mM Na2C2O4: 150 mM NaCl are referred to as the control. Growth solutions prepared with peptides used 20 μg/ml of the additive (unless otherwise stated).
As such, measurements reported herein were conducted at a single peptide concentration (20 μg/ml) to assess COM growth inhibition. To facilitate comparison of peptides in Table 1, Applicants calculated the percent reduction in COM growth rate using the relative difference in ISE slopes (units of ppm Ca^2+ per time) for peptide and control samples during the first 40 min of crystallization.
The slope of ISE curves (FIG. 2A) is the temporal change in free Ca^2+ concentration due to COM nucleation (primary and secondary) and crystal growth. Deconvoluting these two processes (nucleation and growth) from ISE data is nontrivial, particularly if one wishes to extract detailed kinetic information of COM growth rates. […] In the current study, the distinct advantage of ISE compared to more traditional approaches is its ease of use and the rapid time for data acquisition that enables high-throughput analysis of large peptide libraries.
A quantitative comparison of peptide efficacy for inhibiting COM crystallization was performed using in situ ISE measurements. The percent inhibition in COM growth rate was calculated using the relative difference in ISE slopes in the presence of 20 μg/mL peptide. […] The effect of Asp with Glu in peptide sequences was measured on COM growth inhibition (Table 2).

[2] = Wang et al. [11]; similar citrate concentration, lower supersaturation S=1.3; cited from earlier work
[3] = Kinetic studies of COM growth at 60° C. using the calcium assay over 24 hours; details: 20 μg/mL peptide, 24-hour period
Description: A second library of peptides containing glutamic acid (E) and alanine (A) amino acids was synthesized. The sequences of E-peptides shown in Table 2 were used in bulk crystallization studies and kinetic studies to assess their role as growth inhibitors or promoters of COM crystallization. […] These analyses were performed using the calcium assay to track the kinetics of crystallization over a 24-hour period. The calcium ion concentration in the supernatant solution was assessed at periodic times.
(§1) Free calcium concentration in the crystallization solution was measured by a colorimetric assay using Quantichrome DICA 500 Calcium assay kit (BioAssay Systems, Hayward, Calif.). Standard solutions (0, 0.1, 0.2, 0.3, 0.4, 0.5, and 1 mM) were prepared using calcium solutions provided with the kit. Detection reagent was prepared by mixing equal volumes of reagent A and reagent B according to manufacturer's instructions. A 10 μL sample was withdrawn from the top of each crystallization well without disturbing the bottom and dispensed into a 96-well microplate. 100 μL of detection reagent was added to each well and incubated for 3 minutes at room temperature. The absorbance was measured at 612 nm using Biotek Synergy H4 microplate reader (BioTek, Winooski, Vt.). Calcium concentration was determined using a calibration curve prepared from standard calcium solutions.

[4] = High-throughput colorimetric calcium depletion assay (crystallization half-time); details: 37° C., crystallization volume 600 μL, shaking; logistic fit
Description: as §1
Time course of depletion of free calcium in the crystallization solution, normalized to the initial concentration, was fitted to a nonlinear logistic function using OriginPro Software (Origin Lab, Northhampton, Mass.). The logistic function relating calcium concentration to time is given by
where [Ca]t is the normalized calcium concentration at time t, A1 is the normalized initial supersaturation concentration (i.e at t=0), A2 is the normalized equilibrium concentration (i.e. at t=∞), p is the hill coefficient which represents slope of the curve at midpoint, and t1/2 is the crystallization half-time (CHT), defined as the time at which crystallization is 50% complete (i.e. [Ca]t1/2=[…]). A1 was fixed at 1, and A2, p and t1/2 were obtained from fitting the data to equation 1. CHT was used as a measure of inhibition potentials of the peptides. A one-way ANOVA in combination with Tukey post hoc test at p<0.05 level was used to probe statistical significance. Applicants' studied the effects of experimental parameters including volume, shaking and temperature on crystallization in designing a high-throughput screening assay. Applicants have shown the logistic model effectively represents the three phases: induction, crystal growth and equilibrium observed in our setup, and CHT (t1/2) can be used as a measure of efficacy of potential crystal growth modifiers. The peptide library screened comprised of Asp and Ala residues (peptides D1-D13) at optimized assay conditions of 37° C., crystallization volume of 600 μL in a shaking environment. […] The high throughput of the assay provides the opportunity to assess the growth modulation potential of crystal growth modifiers at varying modifier concentrations, supersaturations and ionic strengths with relative ease. […] Finally, the assay can be translated to other crystallization systems in a relatively straightforward fashion for rational design and discovery of growth modifiers for specific applications.

[5] = Bulk crystallization studies of COM crystal size and habit (optical microscopy, SEM, AFM)
Description: FIGS. 4A-4B show macroscopic characterization of COM crystals from bulk crystallization in solutions of 0.5 mM CaC2O4 and 20 μg/ml peptide. Optical microscopy was used to measure: Percent distribution of elongated hexagonal platelet (shaded bars) and diamond platelet (pattern bars) crystal morphologies (FIG. 4A); and length of the COM (100) basal surface measured along the direction (i.e. apical tip-to-tip distance) for hexagonal and diamond morphologies (FIG. 4B). Data in (FIG. 4A) and (FIG. 4B) are the average of three separate crystallization experiments performed at 60° C. for 3 days (error bars equal one standard deviation). Data for peptide D4 (diamond habit) was omitted based on too few crystals for statistical analysis;
COM crystals for bulk crystallization studies were synthesized using a reported procedure that produces micron-sized crystals with large basal (100) surfaces. COM crystals prepared with molar composition 0.7 mM CaCl2: 0.7 mM Na2C2O4: 150 mM NaCl are referred to as the control. Growth solutions prepared with peptides used 20 μg/ml of the additive (unless otherwise stated). The crystals were characterized by optical microscopy using a Leica DM2500-M microscope, scanning electron microscope (SEM) using a FEI 235 Dual-Beam Focused Ion-beam instrument, atomic force microscopy (AFM) using an Asylum MFP-3D-SA instrument (Santa Barbara, Calif.), and a calcium ion-selective electrode (ISE, ThermoScientific).
ISE measurements can be used to screen peptide efficacy, but provide little information regarding the specificity of peptide binding to different surfaces of COM crystals. To this end, Applicants used a second analysis step to identify the effect of peptides on COM crystal size and habit. The influence of the peptide library on macroscopic properties of COM crystals was assessed using bulk crystallization studies and optical and scanning electron microscopy to characterize COM crystals grown in the presence of peptides. In vitro, COM crystallization yields elongated hexagonal platelets with {100} basal surfaces bounded by {010} and crystallographically equivalent {121} apical surfaces (FIG. 3A). […] Applicants observed that multiple peptides in the library reduced growth along the directions, which decreased the crystal aspect ratio (length-to-width) and shifted the morphology from hexagonal to diamond platelets. This change in crystal habit can be attributed to the preferential binding of peptides to COM {121} surfaces, which slows growth along the naturally fast growth directions within the (100) plane.
To more systematically assess the surface topography of COM crystals, Applicants used atomic force microscopy (AFM) to probe the effect of peptides on COM (100) surface roughness. Crystals extracted from control and peptide D5 batches were prepared on AFM sample disks and imaged in air. The RMS roughness for (100) surfaces of hexagonal-shaped crystals from the control and test peptide D5 were approximately 1.0 and 4.3 nm, respectively.
Crystal batches prepared in bulk studies were analyzed using optical microscopy to quantify changes in COM crystal size and aspect ratio. […] Although there were clear differences in the percent population of diamond-shaped crystals among peptides tested in this study, Applicants observed that the size of diamond crystals were generally the same, irrespective of peptide sequence (FIG. 4B). The majority of COM hexagonal platelets in peptide samples had similar size and aspect ratio as the control (here Applicants only report the length of COM crystals in FIG. 4B). A notable exception, however, was peptide D4, which produced a 22% increase in the length-to-width aspect ratio of COM hexagonal crystals, and an increase in the length from 35 μm (control) to 75 μm (peptide D4).

O=C(O)CC(O)(CC(=O)O)C(=O)O [citrate, reference compound]
percent reduction in COM growth rate [1]: 28±6%
reduction in COM growth rate [2]: 48%

A-E-A-E-A-E-A-E-A-E-A-E-A-E-A-E-A-E (AEAEAEAEAEAEAEAEAE; Synthesized Calcium oxalate monohydrate inhibitory polypeptide) [E10]
inhibition of COM crystal growth (calcium in supernatant over time) [3]: inhibition of COM crystal growth; also recorded: more effective inhibitor than E11

E-E-E-E-E-E-E-E-E-E-E-E-E-E-E-E-E-E (EEEEEEEEEEEEEEEEEE; Synthesized Calcium oxalate monohydrate inhibitory polypeptide) [E11]
inhibition of COM crystal growth (calcium in supernatant over time) [3]: inhibition of COM crystal growth

ADAAADDAAADAAAADAA (Synthesized Calcium oxalate monohydrate inhibitory polypeptide) [D8]
percent reduction in COM growth rate [1]: ~6%
increase in peptide efficacy on replacing L-Ala spacer with L-Asp binder (relative to peptide D7) ([1]; ISE, 20 μg/ml, series D7, D8, D9): an order of magnitude increase in efficacy
CHT (hr), crystallization half-time [4]: 4.792 h
percentage of diamond-shaped crystals in total crystal population ([5]; 20 μg/ml peptide, 60° C. for 3 days, optical microscopy, average of three experiments): largest populations of diamond-shaped crystals
population of diamond crystals on doubling peptide concentration ([5]; concentration increased from 20 to 40 μg/ml): did not observe an appreciable increase in the population of diamond crystals

— patent publication US10246489B2, “Peptide inhibitors of calcium oxalate monohydrate crystallization and uses thereof” (UNIVERSITY OF HOUSTON, priority 2013, dated 2019)
